Results reported in US20250092039A1, “GLUTARIMIDE-CONTAINING PAN-KRAS-MUTANT DEGRADER COMPOUNDS AND USES THEREOF” (Tiger Biotherapeutics Inc., priority 2022, published 2025).

How the values were obtained:
KRAS-G12V/RAF1 = KRAS-G12V/RAF1 (Homo sapiens (Human), UniProt P01116, G12V); test: KRAS/RAF1 binding inhibition assay (AlphaScreen)
In short: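 IC50 comes from variable-slope nonlinear fits of % inhibition (relative to DMSO) against inhibitor concentration. The AlphaScreen signal tracks the interaction of GppNHp-bound KRAS G12V with the RAF1 RBD after 60 min at 4° C with compound in 2% DMSO final.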

KRAS G12V = KRAS G12V (Homo sapiens (Human), UniProt P01116, G12V); test: KRAS G12V degradation in SW620 cells (Western blot, DC50); format: cell-based; conditions: 24 hours
Chain of KRAS G12V (P01116-2 other isoform, or with tags, fused parts or gaps G12V): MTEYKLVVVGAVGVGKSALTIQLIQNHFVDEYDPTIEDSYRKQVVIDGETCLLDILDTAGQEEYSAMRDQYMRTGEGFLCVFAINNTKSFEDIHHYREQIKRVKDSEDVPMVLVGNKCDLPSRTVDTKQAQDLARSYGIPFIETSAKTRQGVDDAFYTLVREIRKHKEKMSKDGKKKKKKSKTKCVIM
In short: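 KRAS levels were quantified by fluorescent Western blot as percent of the DMSO control after 24 h of compound exposure at 37° C in homozygous KRAS G12V SW620 cells. A four-parameter variable-slope fit of the dose-response gave the half-maximal degradation concentration.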

SW620 cells = test: 3D cell growth inhibition of SW620 cells carrying endogenous KRAS G12V mutation (CellTiter-Glo 3D, GI50); format: cell-based; conditions: Homo sapiens, SW-620, 144 h; SW620 cells, 6 days; read-out: SW620 3D cell growth GI50
In short: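 […], compound exposure lasted 6 days at 37° C, added the day after plating from DMSO stocks over a concentration range. Cells: SW620, KRAS G12V, 3D culture.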

Chain of KRAS-G12V/RAF1 (P01116-2 other isoform, or with tags, fused parts or gaps G12V): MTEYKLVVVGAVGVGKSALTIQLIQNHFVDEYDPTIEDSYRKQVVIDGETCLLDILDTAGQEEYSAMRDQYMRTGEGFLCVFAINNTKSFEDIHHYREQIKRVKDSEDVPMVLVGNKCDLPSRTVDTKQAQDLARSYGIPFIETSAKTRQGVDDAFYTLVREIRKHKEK

SMILES	IC50 (KRAS-G12V/RAF1) [nM]	DC50 (KRAS G12V) [nM]	GI50 (SW620 cells) [nM]
CCc1c(F)ccc2cc(O)cc(-c3ncc4c(N5CCC[C@@](C)(O)C5)nc(OCC5(CN6CC(N7CCC8(CCN(c9ccc%10c(c9)CN(C9CCC(=O)NC9=O)C%10=O)CC8)CC7)C6)CC5)nc4c3F)c12 (stereo partly drawn) [Compound 153, 3-(5-(9-(1-((1-(((7-(8-ethyl-7-fluoro-3-hydroxynaphthalen-1-yl)-8-fluoro-4-((R)-3-hydroxy-3-methylpiperidin-1-yl)pyrido[4,3-d]pyrimidin-2-yl)oxy)methyl)cyclopropyl)methyl)azetidin-3-yl)-3,9-diazaspiro[5.5]undecan-3-yl)-1-oxoisoindolin-2-yl)piperidine-2,6-dione]	20 to 200	< 1	< 10
CCc1cccc2cc(O)cc(-c3ncc4c(N5CCC[C@@](C)(O)C5)nc(OCC5(CN6CCC7(CC6)CC(N6CCN(c8ccc9c(c8)CN([C@H]8CCC(=O)NC8=O)C9=O)CC6)C7)CC5)nc4c3F)c12 [Compound 138, (3S)-3-[5-[4-[7-[[1-[[7-(8-ethyl-3-hydroxy-1-naphthyl)-8-fluoro-4-[(3R)-3-hydroxy-3-methyl-1-piperidyl]pyrido[4,3-d]pyrimidin-2-yl]oxymethyl]cyclopropyl]methyl]-7-azaspiro[3.5]nonan-2-yl]piperazin-1-yl]-1-oxo-isoindolin-2-yl]piperidine-2,6-dione]	20 to 200	< 1	< 10
CCc1c(F)ccc2cc(O)cc(-c3ncc4c(N5CCCC(C)(O)C5)nc(OCC5(CN6CCC7(CC6)CCC(C)(N6CCN(c8ccc9c(c8)CN(C8CCC(=O)NC8=O)C9=O)CC6)CC7)CC5)nc4c3F)c12 (stereo in doubt) [Compound 167, 3-[5-[4-[3-[[1-[[7-(8-ethyl-7-fluoro-3-hydroxy-1-naphthyl)-8-fluoro-4-[(3R)-3-hydroxy-3-methyl-1-piperidyl]pyrido[4,3-d]pyrimidin-2-yl]oxymethyl]cyclopropyl]methyl]-9-methyl-3-azaspiro[5.5]undecan-9-yl]piperazin-1-yl]-1-oxo-isoindolin-2-yl]piperidine-2,6-dione]	< 20	1 to 10	< 10
CCc1c(F)ccc2cc(O)cc(-c3ncc4c(N5CCC[C@@](C)(O)C5)nc(OCC5(CN6CCN(CC7CCN(c8ccc9c(c8)CN([C@H]8CCC(=O)NC8=O)C9=O)CC7)CC6)CC5)nc4c3F)c12 [Compound 10, (S)-3-(5-(4-((4-((1-(((7-(8-ethyl-7-fluoro-3-hydroxynaphthalen-1-yl)-8-fluoro-4-((R)-3-hydroxy-3-methylpiperidin-1-yl)pyrido[4,3-d]pyrimidin-2-yl)oxy)methyl)cyclopropyl)methyl)piperazin-1-yl)methyl)piperidin-1-yl)-1-oxoisoindolin-2-yl)piperidine-2,6-dione]	20 to 200	< 1	< 10
CCc1c(F)ccc2cc(O)cc(-c3ncc4c(N5CCC[C@@](C)(O)C5)nc(OCC5(CN6CC7(CCC(F)(CN8CCN(c9ccc(C(=O)N[C@H]%10CCC(=O)NC%10=O)c(F)c9)CC8)CC7)C6)CC5)nc4c3F)c12 [Compound 183, N-((S)-2,6-dioxopiperidin-3-yl)-4-(4-((2-((1-(((7-(8-ethyl-7-fluoro-3-hydroxynaphthalen-1-yl)-8-fluoro-4-((R)-3-hydroxy-3-methylpiperidin-1-yl)pyrido[4,3-d]pyrimidin-2-yl)oxy)methyl)cyclopropyl)methyl)-7-fluoro-2-azaspiro[3.5]nonan-7-yl)methyl)piperazin-1-yl)-2-fluorobenzamide]	> 200	> 100	10 to 100
CCc1c(F)ccc2cc(O)cc(-c3ncc4c(N5CCC[C@@H](O)CC5)nc(OCC5(CN6CCC(CN7CCN(c8ccc9c(c8)CN([C@H]8CCC(=O)NC8=O)C9=O)CC7)CC6)CC5)nc4c3F)c12 [Compound 117, (S)-3-(5-(4-((1-((1-(((7-(8-ethyl-7-fluoro-3-hydroxynaphthalen-1-yl)-8-fluoro-4-((R)-4-hydroxyazepan-1-yl)pyrido[4,3-d]pyrimidin-2-yl)oxy)methyl)cyclopropyl)methyl)piperidin-4-yl)methyl)piperazin-1-yl)-1-oxoisoindolin-2-yl)piperidine-2,6-dione]	> 200	1 to 10	> 100
CCc1cccc2cc(O)cc(-c3ncc4c(N5CCC[C@@](C)(O)C5)nc(OCC5(CN6CC(N7CC(N8CCN(c9ccc%10c(c9)CN([C@H]9CCC(=O)NC9=O)C%10=O)CC8)C7)C6)CC5)nc4c3F)c12 [Compound 168, (S)-3-(5-(4-(1′-((1-(((7-(8-ethyl-3-hydroxynaphthalen-1-yl)-8-fluoro-4-((R)-3-hydroxy-3-methylpiperidin-1-yl)pyrido[4,3-d]pyrimidin-2-yl)oxy)methyl)cyclopropyl)methyl)-[1,3′-biazetidin]-3-yl)piperazin-1-yl)-1-oxoisoindolin-2-yl)piperidine-2,6-dione]	20 to 200	1 to 10	> 100
CCc1c(F)ccc2cc(O)cc(-c3ncc4c(N5CCC[C@@](C)(O)C5)nc(OCC5(CN6CCC(OC7CCN(C8CCN(c9ccc%10c(c9)CN(C9CCC(=O)NC9=O)C%10=O)CC8)CC7)CC6)CC5)nc4c3F)c12 (stereo partly drawn) [Compound 43, 3-(5-(4-((1-((1-(((7-(8-ethyl-7-fluoro-3-hydroxynaphthalen-1-yl)-8-fluoro-4-((R)-3-hydroxy-3-methylpiperidin-1-yl)pyrido[4,3-d]pyrimidin-2-yl)oxy)methyl)cyclopropyl)methyl)piperidin-4-yl)oxy)-[1,4′-bipiperidin]-1′-yl)-1-oxoisoindolin-2-yl)piperidine-2,6-dione]	< 20	< 1	< 10
CCc1c(F)ccc2cc(O)cc(-c3ncc4c(N5CCC[C@@](C)(O)C5)nc(OCC5(CN6CCC(N7CC8(CCN(c9ccc%10c(c9)CN(C9CCC(=O)NC9=O)C%10=O)CC8)C7)CC6)CC5)nc4c3F)c12 (stereo partly drawn) [Compound 143, 3-(5-(2-(1-((1-(((7-(8-ethyl-7-fluoro-3-hydroxynaphthalen-1-yl)-8-fluoro-4-((R)-3-hydroxy-3-methylpiperidin-1-yl)pyrido[4,3-d]pyrimidin-2-yl)oxy)methyl)cyclopropyl)methyl)piperidin-4-yl)-2,7-diazaspiro[3.5]nonan-7-yl)-1-oxoisoindolin-2-yl)piperidine-2,6-dione]	< 20	< 1	< 10
CCc1c(F)ccc2cc(O)cc(-c3ncc4c(N5CCC[C@@](C)(O)C5)nc(OCC5(CN6CCC7(CC6)CC(F)(CN6CCN(c8ccc(C(=O)N[C@H]9CCC(=O)NC9=O)c(F)c8)CC6)C7)CC5)nc4c3F)c12 [Compound 180, N-((S)-2,6-dioxopiperidin-3-yl)-4-(4-((7-((1-(((7-(8-ethyl-7-fluoro-3-hydroxynaphthalen-1-yl)-8-fluoro-4-((R)-3-hydroxy-3-methylpiperidin-1-yl)pyrido[4,3-d]pyrimidin-2-yl)oxy)methyl)cyclopropyl)methyl)-2-fluoro-7-azaspiro[3.5]nonan-2-yl)methyl)piperazin-1-yl)-2-fluorobenzamide]	20 to 200	> 100	10 to 100
CCc1c(F)ccc2cc(O)cc(-c3ncc4c(N5CCC[C@@](C)(O)C5)nc(OCC5(CN6CCC(O)(CN7CCN(c8ccc9c(c8)CN([C@H]8CCC(=O)NC8=O)C9=O)CC7)CC6)CC5)nc4c3F)c12 [Compound 13, (S)-3-(5-(4-((1-((1-(((7-(8-ethyl-7-fluoro-3-hydroxynaphthalen-1-yl)-8-fluoro-4-((R)-3-hydroxy-3-methylpiperidin-1-yl)pyrido[4,3-d]pyrimidin-2-yl)oxy)methyl)cyclopropyl)methyl)-4-hydroxypiperidin-4-yl)methyl)piperazin-1-yl)-1-oxoisoindolin-2-yl)piperidine-2,6-dione]	< 20	1 to 10	10 to 100
CCc1cccc2cc(O)cc(-c3ncc4c(N5CCC[C@@](C)(O)C5)nc(OCC5(CN6CCC(CN7CCN(c8ccc9c(c8)CN([C@H]8CCC(=O)NC8=O)C9=O)CC7)CC6)CC5)nc4c3F)c12 [Compound 6, (S)-3-(5-(4-((1-((1-(((7-(8-ethyl-3-hydroxynaphthalen-1-yl)-8-fluoro-4-((R)-3-hydroxy-3-methylpiperidin-1-yl)pyrido[4,3-d]pyrimidin-2-yl)oxy)methyl)cyclopropyl)methyl)piperidin-4-yl)methyl)piperazin-1-yl)-1-oxoisoindolin-2-yl)piperidine-2,6-dione]	20 to 200	< 1	< 10
CCc1cccc2cc(O)cc(-c3ncc4c(N5CCCOCC5)nc(OCC5(CN6CCC7(CC6)CC(CN6CCN(c8ccc9c(c8)CN([C@H]8CCC(=O)NC8=O)C9=O)CC6)C7)CC5)nc4c3F)c12 [Compound 109, (S)-3-(5-(4-((7-((1-(((7-(8-ethyl-3-hydroxynaphthalen-1-yl)-8-fluoro-4-(1,4-oxazepan-4-yl)pyrido[4,3-d]pyrimidin-2-yl)oxy)methyl)cyclopropyl)methyl)-7-azaspiro[3.5]nonan-2-yl)methyl)piperazin-1-yl)-1-oxoisoindolin-2-yl)piperidine-2,6-dione]	> 200	> 100	> 100
